What was measured:
[1] = target: BTK recombinant protein (Homo sapiens (Human), UniProt Q06187); test: Determination of biochemical BTK (Z'-LYTE kinase assay)
How it was run: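 Human BTK recombinant kinase (3.32 nM final) was preincubated with compound for 30 min at 4 °C. Reaction ran 1 h at room temperature with Tyr01 FRET peptide (2 μM) and ATP (32 μM); development protease then added. Coumarin 445 nm/fluorescein 520 nm emission ratio (400 nm excitation) gave inhibition across 8 concentrations, 3000–1.37 nM.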

[2] = system: B cell activation in rat whole blood; test: Determination of B cell activity in whole blood of rats (anti-rat IgD induced B cell activation, flow cytometry); type: cell-based; details: anti-rat immunoglobulin D 10 μg/mL, 18 hours, inhibition of B cell activation
Description: Example 4 Determination of B Cell Activity in Whole Blood of Rats
1. Reagents and Materials
Peripheral whole blood of female Wistar rats;
In the determination of the compound activity, the collected peripheral whole blood of rat was added to a 96 well plate at 80 μL/well and cultured in a 5% CO2, 37° C. cell incubator. After half an hour, the test compound was diluted with PBS in a 3-fold gradient to the corresponding concentrations, and then the diluted test compound with different concentrations was added to the culture system of rat whole blood at 10 μL/well (the final concentration of the test compound was 1.0, 0.33, 0.11, 0.037, 0.012, 0.0041, 0.0014, and 0.0005 μM, the final concentration of DMSO was 0.3%, double replicate wells), or the control solution (0.3% DMSO, 6 replicate wells) was added to the corresponding well at 10 μL/well, which were incubated in the cell incubator for one hour. Then 10 μL/well of anti-rat immunoglobulin D diluted in PBS (the final concentration was 10 μg/mL) was add to the treating wells of the test compound and control wells for anti-rat immunoglobulin D, or 10 μL/well of PBS was added to the negative control wells, which were mixed well to continue the culture in a 5% CO2, 37° C. cell incubator, and incubated for 18 hours.
On the second day, the 96-well plates were taken out and the flow cytometry antibody mixture (the final concentration of anti-rat B220PE antibody was 1 μg/mL and the final concentration of anti-rat CD86 FITC antibody was 1 μg/mL) diluted with PBS was added to each well of plate, which were incubated for 30 minutes in the dark, and then 50 μL of blood from each well was pipetted to the freshly prepared 500 μL of lysis buffer to lyse red blood cells. The plates were shaken for 20 minutes, centrifuged to remove the supernatant, then washed, fixed, and detected on a flow cytometer.
The B cell activation in the sample was determined by flow dyeing method.
The average value of the proportion of activated B cells in the wells with anti-rat immunoglobulin D but without the test compound was used as the control treating well for anti-rat immunoglobulin D, and the average value of the proportion of activated B cells in the wells without immunoglobulin D stimulation and without the test compound was used as the negative control treating well. According to the B cell activation ratio in each well, the inhibition ratio (%) of each concentration was calculated, and then the IC50 value was obtained by using the 205 model in XL-Fit 5.3 software (ID Business Solutions Limited).
The inhibition ratio is calculated as follows: inhibition ratio (%)=100%−{(treating well for the test compound−negative control treating well)/(control treating well for anti-rat immunoglobulin D−negative control treating well)}×100%, wherein,
Treating well for the test compound: represents the B cell activation ratio in rat whole blood treated with anti-rat immunoglobulin D and the test compound.
Control treating well for anti-rat immunoglobulin D: represents the B cell activation ratio in rat whole blood treated with anti-rat immunoglobulin D but without the test compound.
Negative control treating well: represents the B cell activation ratio in rat whole blood without the test compound and without immunoglobulin stimulation.
Through the above-mentioned test, the compound of the present invention has a potency to inhibit B cell activation in rat whole blood.

[3] = target: phosphorylated BTK in Ramos cells (Homo sapiens (Human), UniProt Q06187); test: Determination of phosphorylated BTK in Ramos cells (BTK phospho-Y223 HTRF); type: cell-based; details: anti-human IgM + hydrogen peroxide stimulation
How it was run: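 BTK Y223 phosphorylation measured by HTRF (665/615 nm) in lysates of Ramos cells. Cells were serum-starved 2 h, exposed to compound for 1 h (final 0.00018–3.0 μM, 0.3% DMSO), then stimulated 10 min with 10 μg/mL anti-IgM and 3.3 mM H2O2. IC50 derived from percent inhibition between unstimulated and stimulated controls.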

Sequence of phosphorylated BTK in Ramos cells (Q06187 whole entry): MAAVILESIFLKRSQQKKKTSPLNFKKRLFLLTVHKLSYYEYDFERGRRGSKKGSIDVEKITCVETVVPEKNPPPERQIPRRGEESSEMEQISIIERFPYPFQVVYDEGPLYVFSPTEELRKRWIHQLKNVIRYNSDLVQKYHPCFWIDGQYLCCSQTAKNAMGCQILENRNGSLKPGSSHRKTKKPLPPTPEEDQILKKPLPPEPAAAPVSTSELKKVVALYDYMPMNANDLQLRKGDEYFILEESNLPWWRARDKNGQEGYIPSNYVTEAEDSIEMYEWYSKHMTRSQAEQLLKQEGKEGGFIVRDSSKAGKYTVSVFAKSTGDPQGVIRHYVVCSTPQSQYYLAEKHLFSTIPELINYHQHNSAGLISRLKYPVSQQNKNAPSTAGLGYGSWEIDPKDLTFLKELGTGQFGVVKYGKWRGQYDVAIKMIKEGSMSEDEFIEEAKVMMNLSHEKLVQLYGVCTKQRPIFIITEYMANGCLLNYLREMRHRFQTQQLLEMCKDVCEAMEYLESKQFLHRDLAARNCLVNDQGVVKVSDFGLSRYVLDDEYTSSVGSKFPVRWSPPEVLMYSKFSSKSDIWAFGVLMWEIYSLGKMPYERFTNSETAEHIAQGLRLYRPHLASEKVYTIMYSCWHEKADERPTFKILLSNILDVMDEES
Sequence of BTK recombinant protein (Q06187 whole entry): as above

`C[C@@H]1CN(c2ccc(Nc3cc(-c4ccnc(-n5ccn6c7c(cc6c5=O)CC(C)(C)C7)c4CO)nn(C)c3=O)nc2)[C@@H](C)CN1C1COC1` [Compound 5] was tested, and the IC50 [1] was 9 nM and the IC50 [2] was 2 nM.
`CC1(C)Cc2cc3c(=O)n(-c4nccc(-c5cc(Nc6cc7n(n6)CCN(C6COC6)C7)c6ncnn6c5)c4CO)ccn3c2C1` [Compound 13] showed an IC50 [3] of 1 nM and an IC50 [2] of 5 nM.
Molecule `CN1CCn2nc(Nc3cc(-c4ccnc(-n5ccn6c7c(cc6c5=O)CC(C)(C)C7)c4CO)cn4ncnc34)cc2C1` [Compound 16] has an IC50 [3] of 2 nM and an IC50 [2] of 8 nM.
`CC1(C)Cc2cc3c(=O)n(-c4nccc(-c5cc(Nc6cc7n(n6)CCNC7)c6ncnn6c5)c4CO)ccn3c2C1` [Compound 17] gave an IC50 [3] of 4 nM and an IC50 [2] of 26 nM.
With `C[C@H]1CN(C2COC2)CCN1c1ccc(Nc2nc(-c3ccnc(-n4ccn5c6c(cc5c4=O)CC(C)(C)C6)c3CO)cn(C)c2=O)nc1` [Compound 20] the IC50 [3] was 17 nM and the IC50 [2] was 462 nM.
`CCn1cc(Nc2cc(-c3ccnc(-n4ccn5c6c(cc5c4=O)CC(C)(C)C6)c3CO)cn(C)c2=O)nn1` [Compound 24] showed an IC50 [3] of 14 nM and an IC50 [2] of 85 nM.
In the case of `CCn1cc(Nc2cc(-c3ccnc(-n4ccn5c6c(cc5c4=O)CC(C)(C)C6)c3CO)nn(C)c2=O)nn1` [Compound 25], the IC50 [3] is reported as 24 nM and the IC50 [2] is reported as 29 nM.
In the case of `C[C@@H]1CN(c2ccc(Nc3cc(-c4ccnc(-n5ccn6c7c(cc6c5=O)CC(C)(C)C7)c4CO)cn(C)c3=O)nn2)[C@@H](C)CN1C1COC1` [Compound 205], the IC50 [1] is reported as 15 nM and the IC50 [3] is reported as 15 nM.
`COCCN1CCN(c2ccc(Nc3cc(-c4ccnc(-n5ncn6c7c(cc6c5=O)CC(C)(C)C7)c4CO)cn(C)c3=O)nc2)[C@@H](C)C1` [Compound 206] showed an IC50 [1] of 13 nM and an IC50 [3] of 7 nM.
For `COCCN1C[C@H](C)N(c2ccc(Nc3cc(-c4ccnc(-n5ncn6c7c(cc6c5=O)CC(C)(C)C7)c4CO)cn(C)c3=O)nc2)C[C@H]1C` [Compound 207], the IC50 [1] was 11 nM and the IC50 [3] was 8 nM.
Work on `CCn1cc(Nc2cc(-c3ccnc(-n4ncn5c6c(cc5c4=O)CC(C)(C)C6)c3CO)cn3ncnc23)nn1` [Compound 208] yielded an IC50 [1] of 4 nM and an IC50 [3] of 4 nM.
With `C[C@@H]1CN(c2ccc(Nc3cc(-c4ccnc(-n5ncn6c7c(cc6c5=O)CC(C)(C)C7)c4CO)cn(C)c3=O)nn2)[C@@H](C)CN1C1COC1` [Compound 209] the IC50 [1] was 11 nM and the IC50 [3] was 5 nM.
For `CCn1cc(-c2ccnc(-n3ncn4c5c(cc4c3=O)CC(C)(C)C5)c2CO)cc(Nc2ccc(N3C[C@@H](C)N(C4COC4)C[C@@H]3C)cn2)c1=O` [Compound 210], the IC50 [1] was 21 nM and the IC50 [3] was 19 nM.
`CCn1cc(-c2ccnc(-n3ncn4c5c(cc4c3=O)CC(C)(C)C5)c2CO)cc(Nc2ccc(N3CCN(C4COC4)C[C@@H]3C)cn2)c1=O` [Compound 211] gave an IC50 [1] of 17 nM and an IC50 [3] of 20 nM.
For `C[C@H]1COCCN1c1ccc(Nc2cc(-c3ccnc(-n4ncn5c6c(cc5c4=O)CC(C)(C)C6)c3CO)cn(C)c2=O)nn1` [Compound 212], the IC50 [1] was 10 nM and the IC50 [3] was 11 nM.
Work on `C[C@H]1CN(C2COC2)CCN1c1ccc(Nc2cc(-c3ccnc(-n4ncn5c6c(cc5c4=O)CC(C)(C)C6)c3CO)cn(C)c2=O)nn1` [Compound 213] yielded an IC50 [1] of 15 nM and an IC50 [3] of 15 nM.
Work on `CCn1cc(-c2ccnc(-n3ccn4c5c(cc4c3=O)CC(C)(C)C5)c2CO)cc(Nc2ccc(N3CCOC[C@@H]3C)nn2)c1=O` [Compound 214] yielded an IC50 [1] of 31 nM and an IC50 [3] of 24 nM.
`CCn1cc(-c2ccnc(-n3ccn4c5c(cc4c3=O)CC(C)(C)C5)c2CO)cc(Nc2ccc(N3C[C@@H](C)N(C4COC4)C[C@@H]3C)cn2)c1=O` [Compound 215] gave an IC50 [1] of 31 nM and an IC50 [3] of 51 nM.
Work on `C[C@H]1CN(C2COC2)CCN1c1ccc(Nc2cc(-c3cncc(-n4ccn5c6c(cc5c4=O)CC(C)(C)C6)c3CO)cn(C)c2=O)nc1` [Compound 216] yielded an IC50 [1] of 11 nM and an IC50 [3] of 7 nM.
In the case of `CC[C@H]1CN(C2COC2)CCN1c1ccc(Nc2cc(-c3ccnc(-n4ccn5c6c(cc5c4=O)CC(C)(C)C6)c3CO)cn(C)c2=O)nn1` [Compound 217], the IC50 [1] is reported as 8 nM and the IC50 [3] is reported as 10 nM.
`C[C@@H]1CN(c2ccc(Nc3cc(-c4ccnc(-n5ccn6c7c(c(F)c6c5=O)CCCC7)c4CO)cn(C)c3=O)nc2)[C@@H](C)CN1C1COC1` [Compound 218] showed an IC50 [1] of 6 nM and an IC50 [3] of 12 nM.
For `COCCN1CCN(c2ccc(Nc3cc(-c4ccnc(-n5ncn6c7c(cc6c5=O)CC(C)(C)C7)c4CO)cn(C)c3=O)nc2)C(C)(C)C1` [Compound 220], the IC50 [1] was 5 nM and the IC50 [3] was 16 nM.
For `C[C@@H]1CN(c2ccc(Nc3cc(-c4ccnc(-n5ncn6c7c(c(F)c6c5=O)CCCC7)c4CO)cn(C)c3=O)nc2)[C@@H](C)CN1C1COC1` [Compound 221], the IC50 [1] was 8 nM and the IC50 [3] was 12 nM.
For `Cn1cc(-c2ccnc(-n3ccn4c5c(cc4c3=O)CC(C)(C)C5)c2CO)cc(Nc2ccc(N3CCN(C4COC4)CC3)nn2)c1=O` [Compound 222], the IC50 [1] was 8 nM and the IC50 [3] was 8 nM.
With `CC[C@H]1CN(C2COC2)CCN1c1ccc(Nc2cc(-c3ccnc(-n4ncn5c6c(cc5c4=O)CC(C)(C)C6)c3CO)cn(C)c2=O)nc1` [Compound 224] the IC50 [1] was 9 nM and the IC50 [3] was 7 nM.
`Cn1cc(-c2ccnc(-n3ccn4c5c(c(F)c4c3=O)CCCC5)c2CO)cc(Nc2ccc(N3CCN(C4COC4)CC3(C)C)cn2)c1=O` [Compound 225] gave an IC50 [1] of 11 nM and an IC50 [3] of 9 nM.
Molecule `COCCN1CCN(c2ccc(Nc3cc(-c4ccnc(-n5ccn6c7c(cc6c5=O)CC(C)(C)C7)c4CO)cn(C)c3=O)nc2)C(C)(C)C1` [Compound 226] has an IC50 [1] of 17 nM and an IC50 [3] of 11 nM.
For `CC[C@H]1CN(C2COC2)CCN1c1ccc(Nc2cc(-c3ccnc(-n4ccn5c6c(c(F)c5c4=O)CCCC6)c3CO)cn(C)c2=O)nc1` [Compound 227], the IC50 [1] was 8 nM and the IC50 [3] was 5 nM.
`COCc1c(-c2cc(Nc3ccc(N4CCN(C5COC5)C[C@@H]4C)cn3)c(=O)n(C)c2)ccnc1-n1ccn2c3c(cc2c1=O)CC(C)(C)C3` [Compound 228] was tested, and the IC50 [1] was 171 nM and the IC50 [3] was 139 nM.
With `Cn1cc(-c2ccnc(-n3ccn4c5c(cc4c3=O)CC(C)(C)C5)c2CO)cc(Nc2ccc(N3CCC4(CC3)COC4)cn2)c1=O` [Compound 229] the IC50 [1] was 12 nM and the IC50 [3] was 10 nM.
`Cn1cc(-c2ccnc(-n3ccn4c5c(cc4c3=O)CC(C)(C)C5)c2CO)cc(Nc2ccc(N3C[C@@H]4C[C@H]3CN4C3COC3)cn2)c1=O` [Compound 230] showed an IC50 [1] of 29 nM and an IC50 [3] of 20 nM.
`Cn1cc(-c2ccnc(-n3ccn4c5c(cc4c3=O)CC(C)(C)C5)c2CO)cc(Nc2ccc(N3CCN(C4COC4)CC34CC4)cn2)c1=O` [Compound 231] gave an IC50 [1] of 5 nM and an IC50 [3] of 4 nM.
In the case of `Cn1cc(-c2ccnc(-n3ccn4c5c(cc4c3=O)CC(C)(C)C5)c2CO)cc(Nc2ccc(N3CCC4(CCOC4)CC3)cn2)c1=O` [Compound 233], the IC50 [1] is reported as 40 nM and the IC50 [3] is reported as 8 nM.
`C[C@@H]1[C@H](C)N(c2ccc(Nc3cc(-c4ccnc(-n5ccn6c7c(cc6c5=O)CC(C)(C)C7)c4CO)cn(C)c3=O)nc2)CCN1C1COC1` [Compound 234] showed an IC50 [1] of 32 nM and an IC50 [3] of 10 nM.
`Cn1cc(-c2ccnc(-n3ccn4c5c(cc4c3=O)CC(C)(C)C5)c2CO)cc(Nc2ccc(N3C4CC3CN(C3COC3)C4)cn2)c1=O` [Compound 235] showed an IC50 [1] of 22 nM and an IC50 [3] of 13 nM.

From patent publication US11478474B2, “2-(3′-(hydroxymethyl)-1-methyl-5-((5-(2-methyl-4-(oxetan-3-yl)piperazin-1-yl)pyridin-2-yl)amino)-6-oxo-1,6-dihydro-[3,4′-bipyridin]-2′-yl)-7,7-dimethyl-7,8-dihydro-2H-cyclopenta[4,5]pyrrolo[1,2-a]pyrazin-1(6H)-one as a BTK inhibitor” (HUTCHISON MEDIPHARMA LIMITED, priority 2020, dated 2022)
